Measured values as given in patent US20090280549A1, “Method for Treating Body Fluid” (priority 2005, published 2009).

Experiments:
[1] = tested on: EoL-1 cells (human eosinophilic leukemia cells); test: ATX-S10•Na(II) uptake into EoL-1 cells; type: cell-based; details: for ATX-S10•Na(II) uptake: EoL-1
Procedure: (§1) After labeling the compound represented by formula (II) above (hereinafter referred to as “ATX-S10•Na(II)”) with ^14C, the ATX-S10•Na(II) was dissolved in saline at a concentration of approximately 1×10^−3 mol/L, and the solution was filtered and sterilized with a 0.22 μm filter and then diluted with 1% FBS (fetal bovine serum)-containing RPMI1640 medium to prepare a 5×10^−5 mol/L ATX-S10•Na(II)-added solution.
(§2) As malignant lymphoma cells and leukemia cells, there were used THP-1 cells (human monocytic leukemia cells), EoL-1 cells (human eosinophilic leukemia cells), A3/KAW cells (human malignant lymphoma cells) and KG-1 cells (human acute myeloid leukemia cells). All of the cells were cultured using 10% FBS-containing RPMI1640 medium, with subculturing 1 to 2 times per week during the culturing. The THP-1 cells and EoL-1 cells were obtained from RIKEN BioResource Center, and the A3/KAW cells and KG-1 cells were obtained from Japan Health Sciences Foundation.
(§3) After adding 400 μL of the cell suspension and 100 μL of the ATX-S10•Na(II)-added solution to each well of a 48-well microplate and mixing, the mixtures were incubated with a CO2 incubator (37° C., 5% CO2) or allowed to stand in a refrigerating chamber (approximately 4° C.). The cells were separated immediately after addition (0 hours after addition) and 1 hour, 3 hours, 20 hours and 44 hours after addition, and ATX-S10•Na(II) uptake into the cells (including cell surface binding) was measured. The uptake with standing at 4° C. corresponds to cell surface binding, and the value of the uptake with incubation at 37° C. minus the uptake with standing at 4° C. is presumed to correspond to the substantial ATX-S 10 Na(II) uptake for each type of cell.
(§4) The cell separation and uptake measurement were performed in the following manner. Specifically, 1 mL of 1.5% BSA (bovine serum albumin)-containing PBS solution (ice-cold) was placed in a 1.5 mL tube. The suspension of cells to be separated was gently pipetted and mixed, and a 100 μL portion was taken and superposed onto the 1.5% BSA-containing PBS solution. For each well, the cell suspension (300 μL) was dispensed into three tubes (n=3). After centrifugation (3200 rpm, 10 minutes, 4° C.), the medium and 1.5% BSA-containing PBS solution were removed by suction, and then the precipitate was suspended in 100 μL of PBS(−), and 1 mL of PBS(−) was further added and mixed therewith. After additional centrifugation (3000 rpm, 10 minutes, 4° C.), the supernatant was removed by suction, and the bottom of the tube, where the precipitate is present, was cut out and transferred to a counting vial. Then 4.5 mL of liquid scintillator was added and mixed therewith, and the radioactivity was measured for 5 minutes using a liquid scintillation counter. The measured radioactivity was used to calculate the ATX-S10•Na(II) uptake (pmol/10^5 cells) into the cells.

[2] = tested on: KG-1 cells (human acute myeloid leukemia cells); test: ATX-S10•Na(II) uptake into KG-1 cells; type: cell-based; details: for ATX-S10•Na(II) uptake: KG-1
Procedure: as §1, §2, §3, §4

[3] = tested on: A3/KAW cells (human malignant lymphoma cells); test: ATX-S10•Na(II) uptake into A3/KAW cells; type: cell-based; details: for ATX-S10•Na(II) uptake: A3/KAW
Procedure: as §1, §2, §3, §4

[4] = tested on: THP-1 cells (activated macrophages) stimulated with PMA; test: ATX-S10•Na(II) uptake into THP-1 cells stimulated with PMA; type: cell-based, human
Procedure: as §1, §2, §3, §4
Uptake into THP-1 cells was measured also with stimulation of the cells for approximately 24 hours with PMA (2 nmol/L, 5 nmol/L or 15 nmol/L) and addition of ATX-S10•Na(II) to the cell suspension immediately after removal of the PMA. THP-1 cells differentiate into macrophages upon stimulation with PMA.

[5] = tested on: THP-1 cells (human monocytic leukemia cells); test: ATX-S10•Na(II) uptake into THP-1 cells; type: cell-based; details: for ATX-S10•Na(II) uptake: THP-1
Procedure: as §1, §2, §3, §4

erythrocytes = test: ATX-S10•Na(II) uptake into erythrocytes; type: cell-based, human
Procedure: as §1
Erythrocytes, platelets, neutrophils and lymphocytes were prepared from blood sampled from three healthy persons (designated as A, B and C).
The erythrocytes, neutrophils and lymphocytes were prepared from heparinized blood. […]
as §3, with “The uptake with standing at 4° C. corresponds to cell surface binding, and the value of the uptake with incubation at 37° C. minus the uptake with standing at 4° C. is presumed to correspond to the substantial ATX-S 10 Na(II) uptake for each type of cell.” left out
The cell separation and uptake measurement were performed in the following manner. […] Then 4.5 mL of liquid scintillator was added and mixed therewith, and the radioactivity was measured for 5 minutes using a liquid scintillation counter. […]

[6] = 0 hr, immediately after addition

For `C=Cc1c(C)c2cc3nc(cc4[nH]c(cc5nc(cc1[nH]2)C(C)=C5CCC(=O)NC(CC(=O)[O-])C(=O)[O-])c(CCC(=O)NC(CC(=O)[O-])C(=O)[O-])c4C)C(C)(O)/C3=C\C=NO.[Na+].[Na+].[Na+].[Na+]` (centres unmarked) [ATX-S10•Na(II)], the “ATX-S10•Na(II) uptake” value [1, 6] was 0.32 pmol/10^5 cells, the “ATX-S10•Na(II) uptake” value ([1]; 1 hr, incubation at 37° C.) was 0.25 pmol/10^5 cells and the “ATX-S10•Na(II) uptake” value ([1]; 1 hr, standing at 4° C.) was 0.30 pmol/10^5 cells. The “ATX-S10•Na(II) uptake” value ([1]; 3 hr, incubation at 37° C.) was 0.48 pmol/10^5 cells, the “ATX-S10•Na(II) uptake” value ([1]; 3 hr, standing at 4° C.) was 0.32 pmol/10^5 cells and the “ATX-S10•Na(II) uptake” value ([1]; 20 hr, incubation at 37° C.) was 1.59 pmol/10^5 cells. For the same molecule, the “ATX-S10•Na(II) uptake” value ([1]; 20 hr, standing at 4° C.) was 0.36 pmol/10^5 cells, the “ATX-S10•Na(II) uptake” value ([1]; 44 hr, incubation at 37° C.) was 3.09 pmol/10^5 cells and the “ATX-S10•Na(II) uptake” value ([1]; 44 hr, standing at 4° C.) was 0.37 pmol/10^5 cells. The “uptake compared between cell types” value ([1]; EoL-1 cells versus THP-1, A3/KAW and KG-1 cells) was “fairly low value”, the “substantial uptake of ATX-S10•Na(II) (uptake at 37° C. minus uptake at 4° C.)” value ([1]; EoL-1 cells, course over incubation time) was “increased with incubation time” and the “ATX-S10•Na(II) uptake” value [2, 6] was 0.40 pmol/10^5 cells. For the same molecule, the “ATX-S10•Na(II) uptake” value ([2]; 1 hr, incubation at 37° C.) was 2.34 pmol/10^5 cells, the “ATX-S10•Na(II) uptake” value ([2]; 1 hr, standing at 4° C.) was 1.36 pmol/10^5 cells and the “ATX-S10•Na(II) uptake” value ([2]; 3 hr, incubation at 37° C.) was 2.59 pmol/10^5 cells. The “ATX-S10•Na(II) uptake” value ([2]; 3 hr, standing at 4° C.) was 1.50 pmol/10^5 cells, the “ATX-S10•Na(II) uptake” value ([2]; 20 hr, incubation at 37° C.) was 6.85 pmol/10^5 cells and the “ATX-S10•Na(II) uptake” value ([2]; 20 hr, standing at 4° C.) was 2.87 pmol/10^5 cells. The “ATX-S10•Na(II) uptake” value ([2]; 44 hr, incubation at 37° C.) was 10.97 pmol/10^5 cells, the “ATX-S10•Na(II) uptake” value ([2]; 44 hr, standing at 4° C.) was 0.96 pmol/10^5 cells and the “substantial uptake of ATX-S10•Na(II) (uptake at 37° C. minus uptake at 4° C.)” value ([2]; KG-1 cells, course over incubation time) was “increased with incubation time”. The “substantial uptake of ATX-S10•Na(II) (uptake at 37° C. minus uptake at 4° C.)” value ([3]; A3/KAW cells, course over incubation time) was “increased with incubation time”, the “ATX-S10•Na(II) uptake” value [3, 6] was 0.72 pmol/10^5 cells and the “ATX-S10•Na(II) uptake” value ([3]; 1 hr, incubation at 37° C.) was 2.38 pmol/10^5 cells. For the same molecule, the “ATX-S10•Na(II) uptake” value ([3]; 1 hr, standing at 4° C.) was 1.16 pmol/10^5 cells, the “ATX-S10•Na(II) uptake” value ([3]; 3 hr, incubation at 37° C.) was 3.79 pmol/10^5 cells and the “ATX-S10•Na(II) uptake” value ([3]; 3 hr, standing at 4° C.) was 1.06 pmol/10^5 cells. For the same molecule, the “ATX-S10•Na(II) uptake” value ([3]; 20 hr, incubation at 37° C.) was 10.06 pmol/10^5 cells, the “ATX-S10•Na(II) uptake” value ([3]; 20 hr, standing at 4° C.) was 1.44 pmol/10^5 cells and the “ATX-S10•Na(II) uptake” value ([3]; 44 hr, incubation at 37° C.) was 27.64 pmol/10^5 cells. For the same molecule, the “ATX-S10•Na(II) uptake” value ([3]; 44 hr, standing at 4° C.) was 5.07 pmol/10^5 cells, the “uptake compared with unstimulated cells” value ([4]; THP-1 cells (activated macrophages) stimulated with PMA for 24 hours) was “higher than without stimulation with PMA” and the “ATX-S10•Na(II) uptake” value ([4]; THP-1 stimulated with 2 nmol/L PMA, 0 hr, immediately after addition) was 1.66 pmol/10^5 cells. For the same molecule, the “ATX-S10•Na(II) uptake” value ([4]; THP-1 stimulated with 2 nmol/L PMA, 3 hr, incubation at 37° C.) was 6.66 pmol/10^5 cells, the “ATX-S10•Na(II) uptake” value ([4]; THP-1 stimulated with 2 nmol/L PMA, 3 hr, standing at 4° C.) was 7.05 pmol/10^5 cells and the “ATX-S10•Na(II) uptake” value ([4]; THP-1 stimulated with 2 nmol/L PMA, 20 hr, incubation at 37° C.) was 11.75 pmol/10^5 cells. For the same molecule, the “ATX-S10•Na(II) uptake” value ([4]; THP-1 stimulated with 2 nmol/L PMA, 20 hr, standing at 4° C.) was 5.32 pmol/10^5 cells, the “ATX-S10•Na(II) uptake” value ([4]; THP-1 stimulated with 5 nmol/L PMA, 0 hr, immediately after addition) was 2.07 pmol/10^5 cells and the “ATX-S10•Na(II) uptake” value ([4]; THP-1 stimulated with 5 nmol/L PMA, 3 hr, incubation at 37° C.) was 11.37 pmol/10^5 cells. The “ATX-S10•Na(II) uptake” value ([4]; THP-1 stimulated with 5 nmol/L PMA, 3 hr, standing at 4° C.) was 8.48 pmol/10^5 cells, the “ATX-S10•Na(II) uptake” value ([4]; THP-1 stimulated with 5 nmol/L PMA, 20 hr, incubation at 37° C.) was 16.06 pmol/10^5 cells and the “ATX-S10•Na(II) uptake” value ([4]; THP-1 stimulated with 5 nmol/L PMA, 20 hr, standing at 4° C.) was 7.53 pmol/10^5 cells. The “ATX-S10•Na(II) uptake” value ([4]; THP-1 stimulated with 15 nmol/L PMA, 0 hr, immediately after addition) was 2.93 pmol/10^5 cells, the “ATX-S10•Na(II) uptake” value ([4]; THP-1 stimulated with 15 nmol/L PMA, 3 hr, incubation at 37° C.) was 18.31 pmol/10^5 cells and the “ATX-S10•Na(II) uptake” value ([4]; THP-1 stimulated with 15 nmol/L PMA, 3 hr, standing at 4° C.) was 12.74 pmol/10^5 cells. For the same molecule, the “ATX-S10•Na(II) uptake” value ([4]; THP-1 stimulated with 15 nmol/L PMA, 20 hr, incubation at 37° C.) was 19.95 pmol/10^5 cells, the “ATX-S10•Na(II) uptake” value ([4]; THP-1 stimulated with 15 nmol/L PMA, 20 hr, standing at 4° C.) was 9.13 pmol/10^5 cells and the “ATX-S10•Na(II) uptake” value [5, 6] was 0.56 pmol/10^5 cells. The “ATX-S10•Na(II) uptake” value ([5]; 1 hr, incubation at 37° C.) was 3.30 pmol/10^5 cells, the “ATX-S10•Na(II) uptake” value ([5]; 1 hr, standing at 4° C.) was 1.43 pmol/10^5 cells and the “ATX-S10•Na(II) uptake” value ([5]; 3 hr, incubation at 37° C.) was 4.73 pmol/10^5 cells. For the same molecule, the “ATX-S10•Na(II) uptake” value ([5]; 3 hr, standing at 4° C.) was 2.88 pmol/10^5 cells, the “ATX-S10•Na(II) uptake” value ([5]; 20 hr, incubation at 37° C.) was 18.39 pmol/10^5 cells and the “ATX-S10•Na(II) uptake” value ([5]; 20 hr, standing at 4° C.) was 5.37 pmol/10^5 cells. The “ATX-S10•Na(II) uptake” value ([5]; 44 hr, incubation at 37° C.) was 33.21 pmol/10^5 cells, the “ATX-S10•Na(II) uptake” value ([5]; 44 hr, standing at 4° C.) was 1.94 pmol/10^5 cells and the “uptake compared between cell types” value ([5]; THP-1 cells versus A3/KAW, KG-1 and EoL-1 cells) was “highest”. The “substantial uptake of ATX-S10•Na(II) (uptake at 37° C. minus uptake at 4° C.)” value ([5]; THP-1 cells, course over incubation time) was “increased with incubation time” and the “ATX-S10•Na(II) uptake” value (erythrocytes) was “Almost no ATX-S10•Na(II) was taken up”.
